{
  "source": "patent US10246455B2",
  "about": "“Histone deacetylase inhibitors” (Taipei Medical University, priority 2014, dated 2019)",
  "key": {"[1]": {"tested_on": "histone and α-tubulin acetylation in PC3 cells", "test": "Western blot: acetylation in PC3 cells", "type": "cell-based, human", "conditions": "concentration-dependent", "protocol": "More specifically, cells in the logarithmic phase were initially seeded at a density of 1×10^6 in 100 mm^2 dishes. […] Briefly, cells were lysed with the cell lysis reagent CelLytic™ M (Sigma-Aldrich) containing 1 mM DTT, 1 mM PMSF and protease inhibitors for whole-cell lysate preparation. Equal amounts of lysate (on a protein basis) were then differentiated using the SDS-PAGE, blotted on PVDF membranes, conjugated with various specific primary antibodies, and then probed with appropriate secondary antibodies. The immunoreactive bands were detected using the ECL method and visualized on Kodak Bio-MAX MR film.\nProteins from cells were extracted and subjected to the western blotting analysis. β-Actin was used as an internal control. The deacetylase enzyme assay was based on a homogeneous fluorescence release assay. […] After fluorophore from the deacetylated substrates, fluorescent signal was detected."}, "[2]": {"tested_on": "histone and a-tubulin acetylation in human DU145 cells", "test": "Western blot: acetylation in DU145 cells", "type": "cell-based", "protocol": "More specifically, cells in the logarithmic phase were initially seeded at a density of 1×10^6 in 100 mm^2 dishes. […] IC50 indicia of compound in vitro potency) for the indicated times (i.e., 24 and 48 hours), adherent cells were collected for protein extract preparation. Briefly, cells were lysed with the cell lysis reagent CelLytic™ M (Sigma-Aldrich) containing 1 mM DTT, 1 mM PMSF and protease inhibitors for whole-cell lysate preparation. Equal amounts of lysate (on a protein basis) were then differentiated using the SDS-PAGE, blotted on PVDF membranes, conjugated with various specific primary antibodies, and then probed with appropriate secondary antibodies. The immunoreactive bands were detected using the ECL method and visualized on Kodak Bio-MAX MR film. Proteins from cells were extracted and subjected to the western blotting analysis. β-Actin was used as an internal control. The deacetylase enzyme assay was based on a homogeneous fluorescence release assay. […] After fluorophore from the deacetylated substrates, fluorescent signal was detected."}, "[3]": {"tested_on": "androgen-independent PC3 prostate cancer cells", "test": "Cell cycle analysis", "type": "cell-based, human", "conditions": "androgen-independent PC3 prostate cancer cells", "protocol": "More specifically, cells in the logarithmic phase were initially seeded at a density of 1×10^6 in 100 mm^2 dishes. After treatment with various concentrations of test compounds for the indicated times, cells were trypsinized, washed with PBS, and fixed in 70% ethanol. The fixed cells were then treated with 50 μg/mL RNase and stained with 50 μg/mL propidium iodide at room temperature for 20 minutes. The DNA content was determined by BD FACS Calibur flow cytometry system (BD Biosciences). For each analysis, 10,000 cells were counted, and the percentage of cells in each phase was calculated using ModFit LT software (Verity Software House, Inc.)."}, "WI-38 (normal: lung)": {"tested_on": "WI-38 (normal: lung)", "test": "IC50 against cell lines: WI-38", "conditions": "Homo sapiens, WI-38, read-out: IC50 ± SD against human cancer cell lines"}, "[4]": {"tested_on": "Detroit551 (normal: fibroblast)", "test": "IC50 against cell lines: Detroit551", "conditions": "Homo sapiens, Detroit 551, read-out: IC50 ± SD against human cancer cell lines"}, "KB-7D (KB resistant)": {"tested_on": "KB-7D (KB resistant)", "test": "IC50 against human cancer cell lines: KB-7D", "conditions": "KB7D, read-out: IC50 ± SD against human cancer cell lines", "description": "(§1) More specifically, the IC50 values of test compounds were determined by carrying out a fluorimetric histone deacetylase assay following the manufacturer's instructions. For a pan-HDAC assay, HeLa nuclear extracts were used as a source of histone deacetylase (BioVision Inc.). Histone deacetylase isomer inhibition assays were conducted using purified recombinant histone deacetylase proteins of the various isomers (BPS Bioscience Inc.). Reactions were performed in 0.1 mol/L KCl, 20 mmol/L HEPES/NaOH at pH 7.9, 20% glycerol, 0.2 mmol/L DTA, 0.5 mmol/L DTT, and 0.5 mmol/L phenylmethylsulfonylfluoride. […] Reactions were carried out in triplicate for each test compound. Each point represented the mean±SD of replicates."}, "KB-L30 (KB-resistant)": {"tested_on": "KB-L30 (KB-resistant)", "test": "IC50 against human cancer cell lines: KB-L30", "conditions": "read-out: IC50 ± SD against human cancer cell lines", "description": "as §1"}, "[5]": {"tested_on": "DU-145 (prostate carcinoma)", "test": "IC50 against human cancer cell lines: DU-145", "conditions": "DU-145, read-out: IC50 ± SD against human cancer cell lines", "description": "as §1"}, "KB-VIN10 (KB resistant)": {"tested_on": "KB-VIN10 (KB resistant)", "test": "IC50 against human cancer cell lines: KB-VIN10", "conditions": "Homo sapiens, KB-VIN10, read-out: IC50 ± SD against human cancer cell lines"}, "[6]": {"tested_on": "LNCaP-R1 (prostate carcinoma)", "test": "IC50 against human cancer cell lines: LNCaP-R1", "conditions": "read-out: IC50 ± SD against human cancer cell lines", "description": "as §1"}, "[7]": {"tested_on": "LNCaP-R2 (prostate carcinoma)", "test": "IC50 against human cancer cell lines: LNCaP-R2", "conditions": "read-out: IC50 ± SD against human cancer cell lines"}, "[8]": {"tested_on": "MDA-MB-231 (breast carcinoma)", "test": "IC50 against human cancer cell lines: MDA-MB-231", "conditions": "MDA-MB-231, read-out: IC50 ± SD against human cancer cell lines", "description": "as §1"}, "[9]": {"tested_on": "KB cell line (oral carcinoma)", "test": "IC50 in human cancer cell lines (inhibiting HDAC): KB", "conditions": "Homo sapiens, read-out: IC50 ± SD against human cancer cell lines, KB, oral carcinoma"}, "PC3 (prostate carcinoma)": {"tested_on": "PC3 (prostate carcinoma)", "test": "IC50 in human cancer cell lines (inhibiting HDAC): PC3", "conditions": "read-out: IC50 ± SD against human cancer cell lines"}, "[10]": {"tested_on": "H460 (non-small-cell lung carcinoma)", "test": "IC50 in human cancer cell lines (inhibiting HDAC): H460", "conditions": "NCI-H460, read-out: IC50 ± SD against human cancer cell lines"}, "MCF-7 (breast carcinoma)": {"tested_on": "MCF-7 (breast carcinoma)", "test": "IC50 in human cancer cell lines (inhibiting HDAC): MCF-7", "conditions": "MCF7, read-out: IC50 ± SD against human cancer cell lines"}, "[11]": {"tested_on": "HT-29 (colorectal carcinoma)", "test": "IC50 in human cancer cell lines (inhibiting HDAC): HT-29", "conditions": "HT-29, read-out: IC50 ± SD against human cancer cell lines"}},
  "data": [
    {"smiles": "O=C(/C=C/c1cnc2c(ccn2S(=O)(=O)c2ccccc2)c1)NO", "note": "[Compound 14a, (E)-N-hydroxy-3-(1-(phenylsulfonyl)-1H-pyrrolo[2,3-b]pyridin-5-yl)acrylamide]", "values": [
      {"measurement": "histone and α-tubulin acetylation", "setting": "[1]", "result": "induced histone and α-tubulin acetylation"},
      {"measurement": "histone and a-tubulin acetylation", "setting": "[2]", "result": "induced histone and a-tubulin acetylation"},
      {"measurement": "cell cycle arrest and apoptosis", "setting": "[3]", "result": "induced cell cycle arrest and apoptosis"},
      {"measurement": "IC50", "setting": "WI-38 (normal: lung)", "result": "> 1", "unit": "µM"},
      {"measurement": "IC50", "setting": "[4]", "result": "> 1", "unit": "µM"},
      {"measurement": "IC50", "setting": "KB-7D (KB resistant)", "result": "0.276 ± 0.0784", "unit": "µM"},
      {"measurement": "IC50", "setting": "KB-L30 (KB-resistant)", "result": "0.445 ± 0.249", "unit": "µM"},
      {"measurement": "IC50", "setting": "[5]", "result": "0.42 ± 0.17", "unit": "µM"},
      {"measurement": "IC50", "setting": "KB-VIN10 (KB resistant)", "result": 0.213, "unit": "µM"},
      {"measurement": "IC50", "setting": "[6]", "result": "0.156 ± 0.04", "unit": "µM"},
      {"measurement": "IC50", "setting": "[7]", "result": "0.141 ± 0.05", "unit": "µM"},
      {"measurement": "IC50", "setting": "[8]", "result": "0.184 ± 0.05", "unit": "µM"},
      {"measurement": "IC50", "setting": "[9]", "result": "0.252 ± 0.0585", "unit": "µM"},
      {"measurement": "IC50", "setting": "PC3 (prostate carcinoma)", "result": "0.38 ± 0.22", "unit": "µM"},
      {"measurement": "IC50", "setting": "[10]", "result": "0.243 ± 0.0704", "unit": "µM"},
      {"measurement": "IC50", "setting": "MCF-7 (breast carcinoma)", "result": "0.17 ± 0.055", "unit": "µM"},
      {"measurement": "IC50", "setting": "[11]", "result": "0.182 ± 0.0267", "unit": "µM"}
    ]}
  ]
}
